This note sets out measurements from patent US9040457B2, “Phenylamidines having a high fungicidal activity and use thereof” (ISAGRO S.P.A., priority 2010, dated 2015).

What all share (type): in vivo
One series relates to Erysiphe graminis. Briefly: Fungicidal activity in preventive application (5 days) against Erysiphe graminis on wheat. The settings on record: scale 100 = healthy plant, 0 = completely infected plant; for Activity P5, NT: parts developed during the test (NT); for Activity P5, T: parts treated directly (T). The procedure:
Determination of the Fungicidal Activity in Preventive Application (5 Days) Against Erysiphe graminis on Wheat
(§1) Leaves of wheat plants of the Salgemma variety, grown in pots in a conditioned environment kept at 20° C. and 70% of relative humidity (R.H.), were treated by spraying on both sides of the leaves with the compounds under examination, dispersed in hydroacetonic solutions at 20% by volume of acetone.
After remaining 5 days in a conditioned environment, the plants were infected under dry conditions by shaking over them, in order to distribute the inoculum, plants previously infected by Erysiphe graminis.
The plants were then maintained in the same cell, in a humidity-saturated environment and at a temperature ranging from 18 to 24° C. for 12 days.
(§2) At the end of this period, the external symptoms of the pathogen appeared and it was therefore possible to proceed with the evaluation of the intensity of the infection, on both the parts treated directly with the products (T), and also on the parts which had developed during the test (NT), by means of a visible percentage evaluation scale of the area of affected leafs; the scale comprises, as extremes, the value 100 (healthy plant) and the value 0 (completely infected plant).

Series [1] deals with wheat plants. Briefly: Phytotoxicity (percentage of leaf necrosis) on wheat plants, Erysiphe graminis test. The settings on record: 0 = completely healthy plant, 100 = completely necrotized plant. The procedure:
as §1
(§3) At the same time, the phytotoxicity was evaluated (percentage of leaf necrosis) induced on the wheat plants by the application of the products: in this case, the evaluation scale varies from 0 (completely healthy plant) to 100 (completely necrotized plant).

Another series has as its system Puccinia recondita. Briefly: Fungicidal activity in preventive application (5 days) against Puccinia recondita on wheat. The settings on record: scale 100 = healthy plant, 0 = completely infected plant; for Activity P5, NT: parts developed during the test (NT); for Activity P5, T: parts treated directly (T). On the procedure: Determination of the Fungicidal Activity in Preventive Application (5 Days) Against Puccinia recondita on Wheat
as §1
After remaining 5 days in a conditioned environment, the plants were sprayed on both sides of the leafs with an aqueous suspension of conidia of Puccinia recondita (2 mg of inoculum per 1 ml of solution for infection).
After being sprayed, the plants were kept in a humidity-saturated environment at a temperature ranging from 18 to 24° C. for the incubation period of the fungus (1 day).
After this period, the plants were put in a greenhouse with R.H. of 70% and at a temperature of 18-24° C. for 14 days.
as §2

Series [2] relates to wheat plants. Put plainly: Phytotoxicity (percentage of leaf necrosis) on wheat plants, Puccinia recondita test. The settings on record: 0 = completely healthy plant, 100 = completely necrotized plant. The procedure:
as §1, §3

Series [3] has as its system cereals, cucumbers, tomatoes and other important crops. Briefly: Phytotoxicity of WO 00/46184 compounds on crops (background statement). The settings on record: at the doses which allow a good fungicidal activity.
The test system of the next series is phytopathogenic fungi. Put plainly: Fungicidal activity of WO 00/46184 compound (background statement). The settings on record: only exerted satisfactorily in excessively high dosages.

Molecules are shown by their SMILES.

On to `Cc1cc(Oc2cccc(C(F)(F)F)c2)c(C)cc1N=CN(C)C` [CR-1, N,N-dimethyl-N′-[4-(3-trifluoromethylphenoxy)-2,5-xylyl]-formamidine], for which the “Activity P5, NT” value in the series with Erysiphe graminis (30 ppm) came to 76%; with Erysiphe graminis (125 ppm) it was 90%; in the series on Puccinia recondita (30 ppm) it was 70%; in the series with Puccinia recondita (125 ppm), 90%. The “Activity P5, T” value in the series with Erysiphe graminis (30 ppm) was 90%; in the series with Erysiphe graminis (125 ppm), 100%; in the series with Puccinia recondita (30 ppm), 80%; in the series on Puccinia recondita (125 ppm), 100%. The “Phytotoxicity % N.F.” value is 15% in the series with wheat plants [1] (30 ppm), 25% with wheat plants [1] (125 ppm), 14% with wheat plants [2] (30 ppm) and 26% in the series on wheat plants [2] (125 ppm). The “leaf necrosis on crops” value in series [3] is reported as “marked leaf necrosis”.
For the molecule `CCN(C)C=Nc1cc(C)c(Sc2cccc(OC(F)(F)C(F)F)c2)cc1C` [Compound 2, N-ethyl-N-methyl-N′-{4-[3-(1,1,2,2-tetrafluoroethoxy)phenylthio]-2,5-xylyl}formamidine], the “Activity P5, NT” value in the series on Erysiphe graminis (30 ppm), in the series with Erysiphe graminis (125 ppm), in the series with Puccinia recondita (30 ppm) and in the series on Puccinia recondita (125 ppm) was 100% throughout. In addition, the “Activity P5, T” value in the series with Erysiphe graminis (30 ppm), with Erysiphe graminis (125 ppm), in the series with Puccinia recondita (30 ppm) and in the series with Puccinia recondita (125 ppm) was 100% each time. For the same molecule, the “Phytotoxicity % N.F.” value in the series on wheat plants [1] (30 ppm), in the series on wheat plants [1] (125 ppm), in the series with wheat plants [2] (30 ppm) and in the series on wheat plants [2] (125 ppm) was 0% in each case.
As for `CCN(C)C=Nc1cc(C)c(Sc2cccc(OC(F)F)c2)cc1C` [Compound 1, N-ethyl-N-methyl-N′-[4-(3-difluoromethoxyphenylthio)-2,5-xylyl]formamidine], the “Activity P5, NT” value in the series with Erysiphe graminis (30 ppm), in the series on Erysiphe graminis (125 ppm), in the series on Puccinia recondita (30 ppm) and with Puccinia recondita (125 ppm) was 100% throughout. Moreover, the “Activity P5, T” value in the series on Erysiphe graminis (30 ppm), with Erysiphe graminis (125 ppm), in the series with Puccinia recondita (30 ppm) and in the series with Puccinia recondita (125 ppm) was 100% in each case. The “Phytotoxicity % N.F.” value in the series on wheat plants [1] (30 ppm), in the series on wheat plants [1] (125 ppm), with wheat plants [2] (30 ppm) and in the series with wheat plants [2] (125 ppm) was 0% in each case.
Take `Cc1cc(Sc2cccc(C(F)(F)F)c2)c(C)cc1N=CN(C)C` [CR-2, N,N-dimethyl-N′-[4-(3-trifluoromethylphenylthio)-2,5-xylyl]-formamidine]: the “Activity P5, NT” value stood at 65% in the series with Erysiphe graminis (30 ppm), 80% with Erysiphe graminis (125 ppm), 60% with Puccinia recondita (30 ppm) and 90% with Puccinia recondita (125 ppm). In addition, the “Activity P5, T” value in the series on Erysiphe graminis (30 ppm) worked out at 78%; with Erysiphe graminis (125 ppm), 95%; in the series with Puccinia recondita (30 ppm), 68%; with Puccinia recondita (125 ppm), 95%. In addition, the “Phytotoxicity % N.F.” value in the series with wheat plants [1] (30 ppm), with wheat plants [1] (125 ppm), in the series with wheat plants [2] (30 ppm) and with wheat plants [2] (125 ppm) was 0% in each case. Besides, the fungicidal activity entry with phytopathogenic fungi is given as “insufficient”.
On to `Cc1cc(Oc2cccc(OC(F)(F)F)c2)c(C)cc1N=CN(C)C` [CR-4, N,N-dimethyl-N′-[4-(3-trifluoromethoxyphenoxy)-2,5-xylyl]formamidine], for which the “Activity P5, NT” value was 70% with Erysiphe graminis (30 ppm), 90% with Erysiphe graminis (125 ppm), 65% in the series with Puccinia recondita (30 ppm) and 85% in the series on Puccinia recondita (125 ppm). The “Activity P5, T” value with Erysiphe graminis (30 ppm) came out at 75%; in the series with Erysiphe graminis (125 ppm), 95%; in the series on Puccinia recondita (30 ppm), 70%; in the series with Puccinia recondita (125 ppm), 90%. For the same molecule, the “Phytotoxicity % N.F.” value with wheat plants [1] (30 ppm) was 15%; with wheat plants [1] (125 ppm) it was 30%; with wheat plants [2] (30 ppm) it was 20%; in the series on wheat plants [2] (125 ppm) it was 30%. In addition, the “leaf necrosis on crops” value in series [3] is “marked leaf necrosis”.
As for `CCN(C)C=Nc1cc(C)c(Sc2cccc(OCC(F)(F)C(F)F)c2)cc1C` [Compound 19], the “Activity P5, NT” value in the series on Erysiphe graminis (30 ppm), in the series on Erysiphe graminis (125 ppm), in the series on Puccinia recondita (30 ppm) and in the series on Puccinia recondita (125 ppm) was 100% each time. Besides, the “Activity P5, T” value in the series with Erysiphe graminis (30 ppm), in the series with Erysiphe graminis (125 ppm), in the series with Puccinia recondita (30 ppm) and in the series on Puccinia recondita (125 ppm) was 100% in each case. Also, the “Phytotoxicity % N.F.” value in the series on wheat plants [1] (30 ppm), in the series with wheat plants [1] (125 ppm), in the series on wheat plants [2] (30 ppm) and with wheat plants [2] (125 ppm) was 0% in each case.
For `CCN(C)C=Nc1cc(C)c(Sc2cccc(OCC(F)(F)C(F)(F)F)c2)cc1C` [Compound 23], the “Activity P5, NT” value in the series on Erysiphe graminis (30 ppm), with Erysiphe graminis (125 ppm), in the series with Puccinia recondita (30 ppm) and in the series with Puccinia recondita (125 ppm) was 100% throughout. Besides, the “Activity P5, T” value in the series with Erysiphe graminis (30 ppm), with Erysiphe graminis (125 ppm), in the series on Puccinia recondita (30 ppm) and with Puccinia recondita (125 ppm) was 100% throughout. In addition, the “Phytotoxicity % N.F.” value with wheat plants [1] (30 ppm), in the series with wheat plants [1] (125 ppm), with wheat plants [2] (30 ppm) and with wheat plants [2] (125 ppm) was 0% in each case.
On to `CCN(C)C=Nc1cc(C)c(Oc2cccc(C(F)(F)F)c2)cc1C` [CR-3, N-ethyl-N-methyl-N′-[4-(3-trifluoromethylphenoxy)-2,5-xylyl]formamidine], for which the “Activity P5, NT” value worked out at 85% in the series with Erysiphe graminis (30 ppm), 96% in the series with Erysiphe graminis (125 ppm), 85% in the series with Puccinia recondita (30 ppm) and 100% with Puccinia recondita (125 ppm). Besides, the “Activity P5, T” value is listed as 95% in the series with Erysiphe graminis (30 ppm), 100% with Erysiphe graminis (125 ppm), 95% in the series on Puccinia recondita (30 ppm) and 100% in the series on Puccinia recondita (125 ppm). Besides, the “Phytotoxicity % N.F.” value in the series on wheat plants [1] (30 ppm) is recorded as 20%; in the series on wheat plants [1] (125 ppm), 35%; in the series on wheat plants [2] (30 ppm), 21%; in the series on wheat plants [2] (125 ppm), 33%. For the same molecule, in series [3], the “leaf necrosis on crops” value is reported as “marked leaf necrosis”.
As to `Cc1cc(Oc2cccc(OCC(F)(F)F)c2)c(C)cc1N=CN(C)C` [CR-5, N,N-dimethyl-N′-{4-[3-(2,2,2-trifluoroethoxy)phenoxy]-2,5-xylyl}formamidine], the “Activity P5, NT” value in the series on Erysiphe graminis (30 ppm) came out at 65%; with Erysiphe graminis (125 ppm) it was 80%; in the series on Puccinia recondita (30 ppm) it was 60%; in the series on Puccinia recondita (125 ppm) it was 80%. For the same molecule, the “Activity P5, T” value with Erysiphe graminis (30 ppm) was determined as 70%; in the series with Erysiphe graminis (125 ppm) it was 90%; in the series with Puccinia recondita (30 ppm), 65%; in the series on Puccinia recondita (125 ppm), 85%. Moreover, the “Phytotoxicity % N.F.” value with wheat plants [1] (30 ppm) amounted to 20%; with wheat plants [1] (125 ppm), 30%; with wheat plants [2] (30 ppm) it was 15%; in the series on wheat plants [2] (125 ppm) it was 25%. In addition, the “leaf necrosis on crops” value in series [3] was “marked leaf necrosis”.
In the case of `CCN(C)C=Nc1cc(C)c(Sc2cccc(OCC(F)(F)F)c2)cc1C` [Compound 15], the “Activity P5, NT” value in the series with Erysiphe graminis (30 ppm), in the series with Erysiphe graminis (125 ppm), in the series on Puccinia recondita (30 ppm) and in the series on Puccinia recondita (125 ppm) was 100% each time. The “Activity P5, T” value with Erysiphe graminis (30 ppm), in the series on Erysiphe graminis (125 ppm), with Puccinia recondita (30 ppm) and with Puccinia recondita (125 ppm) was 100% each time. In addition, the “Phytotoxicity % N.F.” value in the series with wheat plants [1] (30 ppm), with wheat plants [1] (125 ppm), in the series on wheat plants [2] (30 ppm) and in the series on wheat plants [2] (125 ppm) was 0% each time.
